Common to all, as to assay: DTP human tumour cell line panel, 48 h
Assay [1] deals with UO-31 renal.
In assay [2] the test system is KM12 colon.
Assay [3] deals with HCT-15 colon.
Assay [4] relates to SF-539 CNS.
Assay [5] relates to MOLT-4 leukemia.
Assay [6] has as its system K-562 leukemia.
Assay [7] relates to SF-295 CNS.
Assay [8] has as its system IGROV1 ovarian.
Assay [9] has as its system COLO 205 colon.
Assay [10] relates to HCC-2998 colon.

Several values for one entry are separate records, joined by “and”; a condition that tells them apart may be missing. Equal values may be shown once.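 In this assay, cells in 96-well plates receive the compound at five concentrations for 48 hours. Endpoints are linearly interpolated between the surrounding concentrations. GI50: concentration for 50% inhibition of growth. TGI: total growth inhibition.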 Where only a bound is given, the exact number is not on record here.

For the molecule `O=C(COc1ccc(/C=C2\Oc3ccc4ccccc4c3C2=O)cc1)c1ccc([N+](=O)[O-])cc1`, the GI50 is 10600 nM in assay [1]; 10.9 µM in assay [2]; 7.6 µM in [3]; 13.8 µM in assay [4]; 1.87 µM in assay [5]; 5.19 µM in assay [6]. Further, the GI50 in [7] was 13700 nM; in assay [8], 4060 nM; in [9] it was 11200 nM; in assay [10] it was 16.7 µM. Also, the TGI in assay [1] is 39.3 µM; in [2] it was 23.4 µM; in [3], 20.4 µM; in assay [4] it was 28.1 µM; in assay [5], 5.56 µM; in assay [6] it was over 100 µM. Further, the TGI was 36.4 µM in assay [7], 34.1 µM in assay [8], 33.5 µM in [9] and 31.6 µM in assay [10].

For the molecule `CC(=O)N[C@H](C)[C@@H](O)[C@@H](C)[C@@H]1OC(=O)/C=C/C=C(C)\C=C\[C@]2(C)C[C@@H](NS(C)(=O)=O)C=C[C@@H]2/C=C(C)/C=C/[C@H]1C`, the GI50 in assay [1] was 4.95 nM and 7.25 nM; in [2] it was 0.125 µM and 0.0277 µM; in assay [3], 0.0359 µM and 0.0337 µM; in assay [4] it was 0.00357 µM and 0.00623 µM; in assay [5], over 43.5 µM; in [6] it was 0.00684 µM and 0.0218 µM. For the same molecule, the GI50 in assay [7] is 2.44 nM and 4.35 nM; in assay [8], 18.5 nM and 14 nM; in assay [9] it was 6.92 nM and 19.9 nM. The TGI in assay [1], in assay [2], in [3], in assay [4], in assay [5] and in [6] was over 43.5 µM in each case. For the same molecule, the TGI in [8], in assay [9] and in assay [10] was over 43.5 µM each time.

Consider `N#CCCN(CCC#N)c1ccc(/C=C(/NC(=O)c2cc([N+](=O)[O-])ccc2Cl)C(=O)N=[N+]=[N-])cc1`, for which the TGI in assay [1], in [2], in assay [3], in assay [4], in [5] and in assay [6] was over 100 µM in each case. The TGI in assay [7], in assay [8], in assay [9] and in assay [10] was over 100 µM each time.

Take `C[C@@H](Nc1nc(N[C@H](C)C(F)(F)F)nc(-c2cccc(Cl)n2)n1)C(F)(F)F`: the GI50 was 51300 nM in [1]; over 100 µM in assay [2]; over 100 µM in assay [3]; 26.5 µM in [4]; over 100 µM in assay [5]; over 100 µM in assay [6]. For the same molecule, the GI50 in assay [7] was 35200 nM; in [8] it was 52500 nM; in assay [9], over 100000 nM; in assay [10], 66.3 µM. Besides, the TGI was over 100 µM in [1]; over 100 µM in assay [2]; over 100 µM in assay [3]; 68.6 µM in assay [4]; over 100 µM in assay [5]; over 100 µM in assay [6]. The TGI in assay [7], in assay [8], in assay [9] and in assay [10] was over 100 µM throughout.

Take `OCC1NC(COC2OC(CO)C(O)C(O)C2O)C(O)C(O)C1O` (stereo not drawn): the TGI in assay [1], in assay [2], in [3], in assay [4], in assay [5] and in assay [6] was over 100 µM each time. Besides, the TGI in assay [7], in assay [8], in assay [9] and in assay [10] was over 100 µM throughout.

For `Oc1ccc(NC(=S)Nc2ccccc2)cc1`, the GI50 in assay [1] was over 100000 nM; in assay [2], over 100 µM; in assay [3], over 100 µM; in assay [4] it was over 100 µM; in assay [5], over 100 µM; in assay [6], over 100 µM. For the same molecule, the GI50 in [7] is over 100000 nM; in assay [8], over 100000 nM; in [9], over 100000 nM; in [10], over 100 µM. In addition, the TGI in assay [1], in assay [2], in [3], in assay [4], in [5] and in assay [6] was over 100 µM throughout. In addition, the total growth inhibition concentration (TGI) in assay [7], in assay [8], in assay [9] and in assay [10] was over 100 µM each time.

With `C[C@@H](O)[C@@H](C)Oc1nc(Nc2ccc(S(=N)(=O)C3CC3)cc2)ncc1C(F)(F)F` (stereo partly drawn), the GI50 in assay [1] was 23.9 nM; in assay [2] it was 0.0242 µM; in assay [3], 0.0329 µM; in assay [4], 0.0162 µM; in assay [5], 0.0255 µM; in [6], 0.0425 µM. In addition, the GI50 in [7] was 31.2 nM; in [8] it was 29.1 nM; in assay [9] it was 15.8 nM; in assay [10] it was 0.0465 µM. Besides, the TGI is 0.0895 µM in [1]; 1.16 µM in assay [2]; over 46.8 µM in assay [3]; 0.0384 µM in assay [4]; 0.0816 µM in assay [5]; over 100 µM in [6]. For the same molecule, the TGI in assay [7] was over 55.3 µM; in assay [8], 25.2 µM; in [9] it was 0.0328 µM; in assay [10], 2.72 µM.

On to `O/N=C1/CCC/C1=C\c1ccccc1`, for which the TGI in assay [1], in assay [2], in assay [3], in [4], in [5] and in [6] was over 100 µM in each case. In addition, the TGI in assay [7], in assay [8], in assay [9] and in assay [10] was over 100 µM throughout.

`CC(C)C[C@H](CC(=O)O)C(=O)N[C@@H](Cc1c[nH]c2ccccc12)C(=O)N[C@@H](C)c1ccccc1`: the GI50 in assay [1] is over 25000 nM; in assay [2], over 25 µM; in assay [3] it was over 25 µM; in [4] it was over 25 µM; in assay [5], over 25 µM; in assay [6] it was over 25 µM. The GI50 in assay [7] was over 25000 nM; in assay [8], over 25000 nM; in [9], over 25000 nM; in assay [10] it was over 25 µM. For the same molecule, the TGI in assay [1], in assay [2], in assay [3], in assay [4], in assay [5] and in [6] was over 25 µM throughout. The TGI in assay [7], in assay [8], in assay [9] and in [10] was over 25 µM in each case.

As for `C[C@@H]1CC[C@H]2[C@@H](C)C(O)O[C@@H]3O[C@]4(C)CC[C@@H]1[C@]32OO4` (stereo partly drawn), the concentration for 50% growth inhibition (GI50) in [1] was 375 nM; in assay [2], 0.213 µM; in assay [3], 0.141 µM; in assay [4], 0.868 µM; in [5], 0.34 µM; in assay [6], 0.337 µM. Further, the GI50 in [7] was 625 nM; in assay [8], 1130 nM; in assay [9] it was 718 nM; in [10] it was 2.6 µM. Besides, the total growth inhibition concentration (TGI) amounted to 2.31 µM in [1]; 8.78 µM in [2]; 13.8 µM in assay [3]; 14.2 µM in assay [4]; 10.5 µM in [5]; 4.57 µM in assay [6]. The total growth inhibition concentration (TGI) was 35.4 µM in assay [7], 5.23 µM in assay [8], 3 µM in [9] and over 63.2 µM in assay [10].

Regarding `N#C/C(=C\c1ccc(O)c(O)c1)C(=O)NCc1ccc(C(F)(F)F)cc1`, the GI50 in assay [1] is 4620 nM; in [2], 6.08 µM; in [3], 4.05 µM; in [4], 5.5 µM; in assay [5] it was 3.92 µM; in assay [6], 9.91 µM. The GI50 in [7] was 3390 nM; in [8], 2400 nM; in assay [9], 12100 nM; in assay [10], 12.1 µM. In addition, the TGI in assay [1] was 18 µM; in assay [2] it was 26.9 µM; in assay [3] it was 41.1 µM; in [4] it was 17.8 µM; in assay [5] it was 31.7 µM; in [6], over 83.6 µM. Further, the TGI worked out at 11.8 µM in assay [7], 14.4 µM in assay [8], 43.3 µM in assay [9] and 24.5 µM in [10].

With `CCOC(=O)/C(=C/CC/C(C)=C/CC/C(C)=C/CCc1ccoc1)CC(=O)N1CCCCC1`, the GI50 in [1] is 2800 nM; in [2], 4.59 µM; in assay [3], 3.01 µM; in assay [4] it was 7.9 µM; in [5], 4.03 µM; in assay [6], 3.91 µM. Further, the GI50 in [7] was 1550 nM; in assay [8], 14000 nM; in assay [9] it was 2320 nM; in assay [10], 3.93 µM. Further, the TGI in assay [1] came out at 12.8 µM; in assay [2] it was 19.2 µM; in [3], 12.5 µM; in assay [4], 20.9 µM; in assay [5], 9.67 µM; in assay [6], 96 µM. Moreover, the TGI worked out at 5.08 µM in assay [7], 47.2 µM in [8], 6.05 µM in assay [9] and 14.3 µM in assay [10].

Turning to `O=C(CCC(=O)Nc1ccccc1C(F)(F)F)N/N=C1\C(=N\NC(=O)CCC(=O)Nc2ccccc2C(F)(F)F)C(c2ccc3c(c2)OCO3)Oc2ccccc21` (stereo not drawn), the total growth inhibition concentration (TGI) in assay [1] was over 100 µM; in [2] it was over 100 µM; in assay [3], over 100 µM; in assay [4], 54.6 µM; in assay [5], over 100 µM; in assay [6], over 100 µM. The TGI in [7], in assay [8], in assay [9] and in assay [10] was over 100 µM in each case.

On to `C/C(=N\Nc1ccccc1)c1sc(-c2nc(C)c(/C(C)=N/Nc3ccccc3)s2)nc1C`, for which the TGI is over 60.7 µM in assay [1]; over 100 µM in assay [2]; over 20.2 µM in [3]; over 37.7 µM in assay [4]; over 100 µM in [5]; 69.9 µM in assay [6]. Besides, the TGI in assay [7] is over 34.9 µM; in assay [8], over 60.9 µM; in [9], 25.6 µM; in assay [10], 19.9 µM.
